In the assay the target is T1, MMP2 (gelatinase A) (Homo sapiens, UniProt P08253).
T1 construct: made in house; host or cells: baculovirus (pFAST BAC 1) in Tn insect cells, secreted
T1 sequence (P08253 110-660): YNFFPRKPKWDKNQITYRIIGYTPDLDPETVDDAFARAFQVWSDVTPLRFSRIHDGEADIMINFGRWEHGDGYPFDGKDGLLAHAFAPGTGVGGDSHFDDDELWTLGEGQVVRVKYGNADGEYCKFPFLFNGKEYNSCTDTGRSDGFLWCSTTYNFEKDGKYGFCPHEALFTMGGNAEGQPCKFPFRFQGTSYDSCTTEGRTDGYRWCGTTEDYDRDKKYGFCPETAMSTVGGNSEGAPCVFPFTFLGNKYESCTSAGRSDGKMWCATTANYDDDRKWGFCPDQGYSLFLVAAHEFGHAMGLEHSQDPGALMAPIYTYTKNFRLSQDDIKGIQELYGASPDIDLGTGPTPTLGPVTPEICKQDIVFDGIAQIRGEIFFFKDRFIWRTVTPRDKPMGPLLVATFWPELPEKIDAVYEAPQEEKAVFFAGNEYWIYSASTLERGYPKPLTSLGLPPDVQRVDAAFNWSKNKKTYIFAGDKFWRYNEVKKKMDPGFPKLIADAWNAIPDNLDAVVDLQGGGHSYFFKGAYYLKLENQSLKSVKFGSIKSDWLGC
Description: MMP2 (gelatinase A) fluorogenic substrate inhibition assay. Format: biochemical. The conditions noted are these: mean ± SEM of three independent experiments. The method, then: The inhibitory activities of compounds of formula I on MT1-MMP, MMP1 (collagenase 1) and MMP2 (gelatinase A) can be determined as follows:
Stock solutions of substrate (MCA-Pro-Leu-Gly-Leu-Dpa-Ala-Arg-NH2 (SEQ ID NO: 1), C. G. Knight, et al, FEBS lett., 296, 263-266, (1992)), are prepared in 100% DMSO at a concentration 1.0 mM.
Stock solutions of inhibitors are prepared in 100% DMSO. The inhibitor is diluted into the assays from a solution in 100% DMSO, and controls substitute an equal volume of DMSO so that the final DMSO concentration from inhibitor and substrate dilutions in all assays is 6.0%. Assays are performed in assay buffer (150 mM NaCl, 10 mM CaCl2, 50 mM Tris-Cl pH7.5, 0.05% Brij-35) containing 6.0% DMSO once the substrate and inhibitor are diluted into it. The substrate concentration used in the assays is […]. The test is carried out at 37° C. The fluorescence changes are monitored using an excitation wavelength of 320 nm and an emission wavelength of […]. The reaction mixture is added in duplicate to appropriate wells of a 96 well microfluor plate. The reaction mixture is preincubated with the inhibitor for 30 min, the reaction is started by the addition of MMP enzyme and the fluorescence intensity is measured for 10 min. A time point that is on a linear part of the curve is chosen to determine the activity. […]

The structures appear in SMILES notation. Counter-ions that a name gives are not always drawn.

This is an account of results in patent publication US7659293B2, “α-Amino-N-hydroxy-acetamide derivatives” (Novartis AG, priority 2001, dated 2010).

The term IC50 denotes the concentration that inhibits the measured activity by half. Lower therefore signals greater potency in that assay.

`CN(C)c1ccc(CN(CC(=O)NO)S(=O)(=O)c2ccc(OCC3CC3)cc2)cc1` [Example 2, 2-[(4-Cyclopropylmethoxy-benzenesulfonyl)-(4-dimethylamino-benzyl-amino]-N-hydroxy-acetamide HCl salt] showed an IC50 of 3.29 ± 0.49 nM.
